According to patent US20060234987A1, “Neuroprotective benzo 1 3 oxathiol 2 ones” (priority 2003, published 2006):

Tests used:
SCG neurons [1] = assay: Protection of SCG neurons from anti-NGF killing; assay type: cell-based, Sprague Dawley rats; conditions: Rattus norvegicus, Neuron; anti-NGF antibody, 48 hours, Alamar Blue viability; read-out: IC50, rescue from anti-NGF killing of cultured SCG neurons
Experimental: Neurotrophins are critical to the growth, development, and survival of small fiber neurons of the PNS. SCG neurons are neurons of the PNS that undergo apoptosis upon NGF withdrawal. In a typical experiment SCG neurons are cultured in the presence of NGF, which induces survival and neurite out-growth. After 5 days the NGF is removed by either the addition of anti-NGF polyclonal antibody (Sigma) or by repeated washings (4 times) with NGF free media, resulting in the apoptosis of up to 90% of the neurons after 48 hours, as measured by MTS staining. The addition of selected compounds of Formula I to the final cellular media provides upwards of 100% protection, at drug concentrations ranging from 10 to 50 μM (see Example 62).
Protection of SCG neurons from anti-NGF killing. SCG neurons were isolated from day 1 neonatal Sprague Dawley rats, plated at a cell density of 5,000 cells/well, and incubated in Biowhittaker Ultraculture containing 1% Penstrep, 1% L-glutamine, 0.7% ARAC, 3% rat serum, and NGF (50 ng/mL, Calomone Labs), at 37° C., under a 5% CO2 atmosphere. After 4 days the cells were treated with anti-NGF antibody (Sigma). At this time compound was added and the cells were maintained serum and NGF free for 48 hours, at which time viability of the neurons was assessed using Alamar Blue (Medicorp) staining. Table 3 summarizes selected IC50 values from compounds tested using this protocol.

SCG neurons [2] = assay: In vitro protection of SCG neurons from Taxol killing; assay type: cell-based, Sprague Dawley rats; conditions: Rattus norvegicus, Neuron; Taxol 50 ng/mL, 48 hours, MTS viability; read-out: IC50, rescue from Taxol killing of SCG neurons
From the text: Taxol™ is regularly used in the treatment of breast and other cancers. Taxol™ binds to the cyto-skeletal protein tubulin, thereby inhibiting normal microtubular […] and inducing cellular apoptosis. Despite its potency as an anti-tumour agent, Taxol™ is also toxic to neurons, inducing dose limiting peripheral neuropathies. The addition of Taxol™ to cultured SCG neurons induces the degradation or loss of upwards of 80% of the neurons. The addition of selected compounds of Formula I to the cellular media, concurrently with Taxol™, protects upwards of 100% of the neurons, at drug concentrations ranging from 3 to 50 μM (see Example 63).
In Vitro Protection of SCG neurons from Taxol killing. SCG neurons were isolated from day 1 neonatal Sprague Dawley rats, plated at a cell density of 10,000 cells/well, and incubated in Biowhittaker Ultraculture containing 1% Penstrep, 1% L-glutamine, 0.7% ARAC, 3% rat serum, and NGF (50 ng/mL, Calomone Labs) at 37° C., under a 5% CO2 atmosphere. After 5 days the cells were treated with compound and Taxol™ (50 ng/mL). Viability of neurons was assessed 48 hours later using MTS (Promega) staining. Table 4 summarizes selected IC50 values from compounds tested using this protocol. Also, see FIG. 1 for compound protection against Taxol killing.

[3] = Conversion of esters and carbamates to phenol in microsomal fractions; assay type: in vitro ADME; conditions: incubated with microsomal fractions, standard conditions
Experimental: The phenolic moiety observed in many of the compounds represented by Formula I may be converted to esters, carbamates, thiocarbamates and sulfonates. The Applicant has shown that both esters and carbamates are rapidly converted to the corresponding phenol when incubated in the presence of microsomal fractions using standard conditions (Cresteil, T., et al. Am. Soc. Pharm. Exper. Therapeutics, 2002, 30, 438-445). These microsomal fractions contain various active esterase and P450 oxidative enzymes. […] Esters and carbamates of this type allow for the preparation of various novel pro-drugs which display increased water solubility, stability, formulation, and pharmacokinetic profiles. The carbamates disclosed in U.S. Pat. No. 4,349,685 are limited to lower alkyl, substituted aryl, haloalkyl, carbalkoxyalkene or an alkyl carbonyloxyalkylene group. The preferred embodiments of this disclosure include esters and carbamates represented by Formula I, where the carbamate or ester moiety includes substituted lower alkyl, heteroaryl, substituted heteroaryl moieties which contain a basic nitrogen, capable of increasing the water solubility of said compound via an acid/base salt (typified by compounds 55 and 61).

SMILES: O=C(Oc1cc(-c2ccc(-c3ccccc3)cc2)c2oc(=O)sc2c1)c1cccnc1 [Compound 55, 5-(3-pyridylcarbonyloxy)-7-biphenylbenzo[1,3]oxathiol-2-one]
- IC50 (SCG neurons [1]): 7 µM
- IC50 (SCG neurons [2]): 2 µM
- conversion to parent phenol in microsomal fractions [3]: rapidly converted to their parent phenols
